Experimental data: publication PMC10925693, “The Mla system and its role in maintaining outer membrane barrier function in Stenotrophomonas maltophilia” (Frontiers in Cellular and Infection Microbiology, 2024)

Target: MlaC (Smlt4673) (Stenotrophomonas maltophilia, UniProt B2FP85)
Experiment: MicroScale Thermophoresis (MST), supported by nanoDSF Tm shift
Type: binding

Sequence of MlaC (Smlt4673) (B2FP85 entry or part of it): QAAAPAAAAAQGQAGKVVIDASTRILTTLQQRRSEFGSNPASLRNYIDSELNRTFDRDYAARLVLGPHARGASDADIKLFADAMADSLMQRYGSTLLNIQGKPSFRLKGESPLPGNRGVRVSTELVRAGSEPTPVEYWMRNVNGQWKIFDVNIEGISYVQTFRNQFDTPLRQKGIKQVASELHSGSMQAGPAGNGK

CCCCCCCCCCCCCC(=O)OC[C@H](COP(=O)(O)OCCN)OC(=O)CCCCCCCCCCCCC [PE14/14, PE C14:0/C14:0]
Kd: 795 µM
